# Data published in ChEMBL document CHEMBL1134516, “Probing the interaction of dengue virus envelope protein with heparin: assessment of glycosaminoglycan-derived inhibitors” (J Med Chem, 2001).
# System: Dengue virus
# Experiment: Dissociation constant for Dengue virus envelope protein binding by surface plasmon resonance
# Type: functional
structure (smiles),measurement,value
Cc1ccc(C(=O)Nc2ccc(S(=O)(=O)O)c3cc(S(=O)(=O)O)cc(S(=O)(=O)O)c23)cc1NC(=O)c1cccc(NC(=O)Nc2cccc(C(=O)Nc3cc(C(=O)Nc4ccc(S(=O)(=O)O)c5cc(S(=O)(=O)O)cc(S(=O)(=O)O)c45)ccc3C)c2)c1 [SURAMIN],Kd,40 nM
